Test results published in US7060707B2, “Isoquinoline derivatives” (Merck Patent GmbH, priority 2002, dated 2006).

melting point: 103 to 109 °C
Structure (SMILES): Cc1ccnc(NCCCCC(=O)NNC(=O)N2CCc3ccccc3C2CC(=O)O)c1 (stereo not shown) [Example 4]
